Reference: ChEMBL document CHEMBL3271985, “Partition coefficients and surface areas of some alkylbenzenes” (J Med Chem, 1976)

Assay: Octanol-water partition coefficient, log P of the compound

SMILES	logP
c1ccc(C2CCCCC2)cc1	4.64
c1ccc2c(c1)CCCC2	3.52
CC(C)c1ccccc1 [ISOPROPYLBENZENE]	3.66
Cc1cccc(C)c1 [M-XYLENE]	3.2
c1ccc(C2CCCC2)cc1	4.27
Cc1ccc(C)cc1 [P-XYLENE]	3.15
c1ccc(C23CC4CC(CC(C4)C2)C3)cc1	5.43
c1ccc2c(c1)CCC2	3.33
CC(C)(C)c1ccccc1 [tert-Butylbenzene]	4.11
Cc1ccccc1C [O-XYLENE]	3.12
c1cc2ccc1CCc1ccc(cc1)CC2	2.33
